Test results: patent US20250346593A1, “IMIDAZO(1,2-1)PYRIDINE DERIVATIVES AS RIPK2 INHIBITORS” (Interline Therapeutics, Inc., priority 2022, published 2025)
Where two headings read alike, the source gives them in different places.

Tests used:
[1] = tested on: NF-κB pathway (SEAP) in THP1-Dual cells; test: THP-1 Dual cell SEAP assay (L18-MDP stimulated); type: cell-based; settings: read-out: NFkB THP1 IC50
[2] = target: GST-RIPK2 fusion protein (human RIPK2 amino acids 1-310) (Homo sapiens (Human), UniProt O43353); test: RIPK2 binding competition assay (TR-FRET, Tracer 199)
GST-RIPK2 fusion protein (human RIPK2 amino acids 1-310), sequence (O43353 1-310): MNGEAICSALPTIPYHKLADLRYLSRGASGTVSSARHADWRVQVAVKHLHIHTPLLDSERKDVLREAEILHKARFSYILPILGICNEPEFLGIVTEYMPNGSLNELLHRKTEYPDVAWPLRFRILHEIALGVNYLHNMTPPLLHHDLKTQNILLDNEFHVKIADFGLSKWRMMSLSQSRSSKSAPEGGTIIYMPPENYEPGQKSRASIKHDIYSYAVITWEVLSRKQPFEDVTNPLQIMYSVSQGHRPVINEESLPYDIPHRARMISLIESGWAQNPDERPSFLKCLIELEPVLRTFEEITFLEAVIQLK

[3] = read-out: RIPK2 IC50, RIPK2 binding competition assay

COc1cc2ncc(-c3cc(C)c(OC)c(NCCCO)c3)n2cc1S(=O)(=O)C(C)(C)C [Example 322, 3-((5-(6-(tert-butylsulfonyl)-7-methoxyimidazo[1,2-a]pyridin-3-yl)-2-methoxy-3-methylphenyl)amino)propan-1-ol]
IC50 ([1]; Homo sapiens, THP1-Dual): > 1000 nM | IC50 [2]: 2.5 to 20 nM

COc1cc2ncc(-c3cnn(CCCO)c3)n2cc1S(=O)(=O)C(C)(C)C [Example 323, 3-(4-(6-(tert-butylsulfonyl)-7-methoxyimidazo[1,2-a]pyridin-3-yl)-1H-pyrazol-1-yl)propan-1-ol]
IC50 ([1]; Homo sapiens, THP1-Dual): > 1000 nM | IC50 [2, 3]: > 20 nM

COc1cc2ncc(-c3cnn(CCO)c3)n2cc1S(=O)(=O)C(C)(C)C [Example 324, 2-(4-(6-(tert-butylsulfonyl)-7-methoxyimidazo[1,2-a]pyridin-3-yl)-1H-pyrazol-1-yl)ethan-1-ol]
IC50 ([1]; Homo sapiens, THP1-Dual): > 1000 nM | IC50 [2, 3]: > 20 nM

CCCS(=O)(=O)N(C)c1cc(-c2cnc3cc(OC)c(S(=O)(=O)C(C)(C)C)cn23)cc(OC)c1C [Example 325, N-(5-(6-(tert-butylsulfonyl)-7-methoxyimidazo[1,2-a]pyridin-3-yl)-3-methoxy-2-methylphenyl)-N-methylpropane-1-sulfonamide]
IC50 ([1]; Homo sapiens, THP1-Dual): > 1000 nM | IC50 [2, 3]: > 20 nM

CNc1cc(-c2cnc3cc(OC)c(S(=O)(=O)C(C)(C)C)cn23)cc(OC)c1OC [Example 326, 5-(6-(tert-butylsulfonyl)-7-methoxyimidazo[1,2-a]pyridin-3-yl)-2,3-dimethoxy-N-methylaniline]
IC50 ([1]; Homo sapiens, THP1-Dual): 50 to 250 nM | IC50 [2]: 1 to 2.5 nM

COc1cc2ncc(-c3cc(Cl)nc(NCCCO)c3)n2cc1S(=O)(=O)C(C)(C)C [Example 327, 3-((4-(6-(tert-butylsulfonyl)-7-methoxyimidazo[1,2-a]pyridin-3-yl)-6-chloropyridin-2-yl)amino)propan-1-ol]
IC50 ([1]; Homo sapiens, THP1-Dual): < 50 nM | IC50 [2]: 1 to 2.5 nM

COc1cc2ncc(-c3cc(N)c(=O)n(C(F)F)c3)n2cc1S(=O)(=O)C(C)(C)C [Example 328, 3-amino-5-(6-(tert-butylsulfonyl)-7-methoxyimidazo[1,2-a]pyridin-3-yl)-1-(difluoromethyl) pyridin-2(1H)-one]
IC50 ([1]; Homo sapiens, THP1-Dual): > 1000 nM | IC50 [2, 3]: > 20 nM

COc1cc2ncc(-c3cc(F)c(OC)c(NCCN)c3)n2cc1S(=O)(=O)C(C)(C)C [Example 329, N1-(5-(6-(tert-butylsulfonyl)-7-methoxyimidazo[1,2-a]pyridin-3-yl)-3-fluoro-2-methoxyphenyl) ethane-1,2-diamine]
IC50 ([1]; Homo sapiens, THP1-Dual): 250 to 1000 nM | IC50 [2]: 2.5 to 20 nM

CC(C)(C)S(=O)(=O)c1ccc2ncc(-c3cc(N)nc(F)c3)n2c1 [Example 330, 4-(6-(tert-butylsulfonyl)imidazo[1,2-a]pyridin-3-yl)-6-fluoropyridin-2-amine]
IC50 ([1]; Homo sapiens, THP1-Dual): 250 to 1000 nM | IC50 [2]: 2.5 to 20 nM

CCc1ccc(-c2cnc3cc(OC)c(S(=O)(=O)C(C)(C)C)cn23)nc1N [Example 331, 6-(6-(tert-butylsulfonyl)-7-methoxyimidazo[1,2-a]pyridin-3-yl)-3-ethylpyridin-2-amine]
IC50 ([1]; Homo sapiens, THP1-Dual): > 1000 nM | IC50 [2, 3]: > 20 nM

COc1cc2ncc(-c3ccc(C)c(N)n3)n2cc1S(=O)(=O)C(C)(C)C [Example 332, 6-(6-(tert-butylsulfonyl)-7-methoxyimidazo[1,2-a]pyridin-3-yl)-3-methylpyridin-2-amine]
IC50 ([1]; Homo sapiens, THP1-Dual): > 1000 nM | IC50 [2, 3]: > 20 nM

COc1cc2ncc(-c3cc(N)c(C#N)c(F)c3)n2cc1S(=O)(=O)C(C)(C)C [Example 333, 2-amino-4-(6-(tert-butylsulfonyl)-7-methoxyimidazo[1,2-a]pyridin-3-yl)-6-fluorobenzonitrile]
IC50 ([1]; Homo sapiens, THP1-Dual): 250 to 1000 nM | IC50 [2]: 2.5 to 20 nM

COc1cc2ncc(-c3ccc(OC(F)(F)F)c(N)n3)n2cc1S(=O)(=O)C(C)(C)C [Example 334, 6-(6-(tert-butylsulfonyl)-7-methoxyimidazo[1,2-a]pyridin-3-yl)-3-(trifluoromethoxy)pyridin-2-amine]
IC50 ([1]; Homo sapiens, THP1-Dual): > 1000 nM | IC50 [2, 3]: > 20 nM

COc1cc2ncc(-c3cc(C)c(OC)c(N)n3)n2cc1S(=O)(=O)C(C)(C)C [Example 335, 6-(6-(tert-butylsulfonyl)-7-methoxyimidazo[1,2-a]pyridin-3-yl)-3-methoxy-4-methylpyridin-2-amine]
IC50 ([1]; Homo sapiens, THP1-Dual): > 1000 nM | IC50 [2]: > 20 nM

COc1cc2ncc(-c3ccc(OC)c(N)n3)n2cc1S(=O)(=O)C(C)(C)C [Example 336, 6-(6-(tert-butylsulfonyl)-7-methoxyimidazo[1,2-a]pyridin-3-yl)-3-methoxypyridin-2-amine]
IC50 ([1]; Homo sapiens, THP1-Dual): > 1000 nM | IC50 [2, 3]: > 20 nM

COc1cc2ncc(-c3cc(F)c(OC)c(C(C)(C)O)c3)n2cc1S(=O)(=O)C(C)(C)C [Example 337, 2-(5-(6-(tert-butylsulfonyl)-7-methoxyimidazo[1,2-a]pyridin-3-yl)-3-fluoro-2-methoxyphenyl)propan-2-ol]
IC50 ([1]; Homo sapiens, THP1-Dual): 250 to 1000 nM | IC50 [2]: 1 to 2.5 nM

COc1cc2ncc(-c3cc(F)c(OC)c(OCCO)c3)n2cc1S(=O)(=O)C(C)(C)C [Example 338, 2-(5-(6-(tert-butylsulfonyl)-7-methoxyimidazo[1,2-a]pyridin-3-yl)-3-fluoro-2-methoxyphenoxy)ethan-1-ol]
IC50 ([1]; Homo sapiens, THP1-Dual): > 1000 nM | IC50 [2]: 2.5 to 20 nM

COc1cc2ncc(-c3cc(F)c(OC)c(C4CC4)c3)n2cc1S(=O)(=O)C(C)(C)C [Example 340]
IC50 ([1]; Homo sapiens, THP1-Dual): 50 to 250 nM | IC50 [2]: 1 to 2.5 nM

CCCS(=O)(=O)Nc1nc(-c2cnc3cc(OC)c(S(=O)(=O)C(C)(C)C)cn23)ccc1OC [compound 314, N-(6-(6-(tert-butylsulfonyl)-7-methoxyimidazo[1,2-a]pyridin-3-yl)-3-methoxypyridin-2-yl)propane-1-sulfonamide]
IC50 ([1]; Homo sapiens, THP1-Dual): > 1000 nM | IC50 [2, 3]: > 20 nM

COc1cc2ncc(-c3cc(F)nc(NCCS(C)(=N)=O)c3)n2cc1S(=O)(=O)C(C)(C)C (centres unmarked) [compound 316]
IC50 [1]: 250 to 1000 nM | IC50 [2, 3]: 2.5 to 20 nM

COc1cc(NCCCO)cc(-c2cnc3cc(OC)c(S(=O)(=O)C(C)(C)C)cn23)n1 [compound 321, 3-((2-(6-(tert-butylsulfonyl)-7-methoxyimidazo[1,2-a]pyridin-3-yl)-6-methoxypyridin-4-yl)amino)propan-1-ol]
IC50 ([1]; Homo sapiens, THP1-Dual): > 1000 nM | IC50 [2, 3]: > 20 nM

COc1cc2ncc(-c3cc(F)c(OC)c(OCCCO)c3)n2cc1S(=O)(=O)C(C)(C)C [compound 339, 3-(5-(6-(tert-butylsulfonyl)-7-methoxyimidazo[1,2-a]pyridin-3-yl)-3-fluoro-2-methoxyphenoxy) propan-1-ol]
IC50 ([1]; Homo sapiens, THP1-Dual): > 1000 nM | IC50 [2]: 2.5 to 20 nM
